Source: the NIST ThermoML archive (doi:10.1016/j.tca.2019.178383)
Numbers after ± are expanded uncertainties.

Legend:
[1] = for surface tension liquid-gas: Maximal bubble pressure; for mass density: 100 kPa, Liquid, Vibrating tube method
[2] = xn = mol fraction of the nth substance listed; settings: x2 = 0; for surface tension liquid-gas: Maximal bubble pressure; for mass density: 100 kPa, Liquid, Vibrating tube method

## CCn1cc[n+](CCOC)c1.O=S(=O)([O-])C(F)(F)F
[1]; 288.15 K
  surface tension liquid-gas: 36.3 ± 1.5 mN/m
  mass density: 1348.94 ± 1.4 kg/m3
[1]; 293.15 K
  surface tension liquid-gas: 36.1 ± 1.5 mN/m
  mass density: 1344.66 ± 1.4 kg/m3
[1]; 298.15 K
  surface tension liquid-gas: 35.8 ± 1.5 mN/m
  mass density: 1340.41 ± 1.4 kg/m3
[1]; 303.15 K
  surface tension liquid-gas: 35.5 ± 1.5 mN/m
  mass density: 1336.17 ± 1.4 kg/m3
[1]; 308.15 K
  surface tension liquid-gas: 35.3 ± 1.5 mN/m
  mass density: 1331.96 ± 1.4 kg/m3
[1]; 313.15 K
  surface tension liquid-gas: 35.1 ± 1.5 mN/m
  mass density: 1327.77 ± 1.4 kg/m3
[1]; 318.15 K
  surface tension liquid-gas: 34.9 ± 1.5 mN/m
  mass density: 1323.6 ± 1.4 kg/m3

## CCO [ethanol]
[1]; 288.15 K
  surface tension liquid-gas: 21.9 ± 1.5 mN/m
  mass density: 794.308 ± 1.3 kg/m3
[1]; 293.15 K
  surface tension liquid-gas: 21.4 ± 1.5 mN/m
  mass density: 790.041 ± 1.3 kg/m3
[1]; 298.15 K
  surface tension liquid-gas: 20.9 ± 1.5 mN/m
  mass density: 785.746 ± 1.3 kg/m3
[1]; 303.15 K
  surface tension liquid-gas: 20.5 ± 1.5 mN/m
  mass density: 781.43 ± 1.3 kg/m3
[1]; 308.15 K
  surface tension liquid-gas: 20 ± 1.5 mN/m
  mass density: 777.078 ± 1.3 kg/m3
[1]; 313.15 K
  surface tension liquid-gas: 19.5 ± 1.5 mN/m
  mass density: 772.688 ± 1.3 kg/m3
[1]; 318.15 K
  surface tension liquid-gas: 19 ± 1.5 mN/m
  mass density: 768.257 ± 1.3 kg/m3

## CCO [ethanol] + CCn1cc[n+](CCOC)c1.O=S(=O)([O-])C(F)(F)F
[2]; 288.15 K
  surface tension liquid-gas: 21.9 ± 1.5 mN/m
  mass density: 794.308 ± 1.3 kg/m3
[2]; 293.15 K
  surface tension liquid-gas: 21.4 ± 1.5 mN/m
  mass density: 790.041 ± 1.3 kg/m3
[2]; 298.15 K
  surface tension liquid-gas: 20.9 ± 1.5 mN/m
  mass density: 785.746 ± 1.3 kg/m3
[2]; 303.15 K
  surface tension liquid-gas: 20.5 ± 1.5 mN/m
  mass density: 781.43 ± 1.3 kg/m3
[2]; 308.15 K
  surface tension liquid-gas: 20 ± 1.5 mN/m
  mass density: 777.078 ± 1.3 kg/m3
[2]; 313.15 K
  surface tension liquid-gas: 19.5 ± 1.5 mN/m
  mass density: 772.688 ± 1.3 kg/m3
[2]; 318.15 K
  surface tension liquid-gas: 19 ± 1.5 mN/m
  mass density: 768.257 ± 1.3 kg/m3

## CCCO [propan-1-ol]
[1]; 288.15 K
  surface tension liquid-gas: 22.9 ± 1.5 mN/m
  mass density: 807.507 ± 1.3 kg/m3
[1]; 293.15 K
  surface tension liquid-gas: 22.5 ± 1.5 mN/m
  mass density: 803.519 ± 1.3 kg/m3
[1]; 298.15 K
  surface tension liquid-gas: 22.1 ± 1.5 mN/m
  mass density: 799.514 ± 1.3 kg/m3
[1]; 303.15 K
  surface tension liquid-gas: 21.8 ± 1.5 mN/m
  mass density: 795.48 ± 1.3 kg/m3
[1]; 308.15 K
  surface tension liquid-gas: 21.4 ± 1.5 mN/m
  mass density: 791.416 ± 1.3 kg/m3
[1]; 313.15 K
  surface tension liquid-gas: 21 ± 1.5 mN/m
  mass density: 787.306 ± 1.3 kg/m3
[1]; 318.15 K
  surface tension liquid-gas: 20.6 ± 1.5 mN/m
  mass density: 783.149 ± 1.3 kg/m3

## CCCO [propan-1-ol] + CCn1cc[n+](CCOC)c1.O=S(=O)([O-])C(F)(F)F
[2]; 288.15 K
  surface tension liquid-gas: 22.9 ± 1.5 mN/m
  mass density: 807.507 ± 1.3 kg/m3
[2]; 293.15 K
  surface tension liquid-gas: 22.5 ± 1.5 mN/m
  mass density: 803.519 ± 1.3 kg/m3
[2]; 298.15 K
  surface tension liquid-gas: 22.1 ± 1.5 mN/m
  mass density: 799.514 ± 1.3 kg/m3
[2]; 303.15 K
  surface tension liquid-gas: 21.8 ± 1.5 mN/m
  mass density: 795.48 ± 1.3 kg/m3
[2]; 308.15 K
  surface tension liquid-gas: 21.4 ± 1.5 mN/m
  mass density: 791.416 ± 1.3 kg/m3
[2]; 313.15 K
  surface tension liquid-gas: 21 ± 1.5 mN/m
  mass density: 787.306 ± 1.3 kg/m3
[2]; 318.15 K
  surface tension liquid-gas: 20.6 ± 1.5 mN/m
  mass density: 783.149 ± 1.3 kg/m3

## CC(C)O [propan-2-ol]
[1]; 288.15 K
  surface tension liquid-gas: 20.6 ± 1.5 mN/m
  mass density: 789.224 ± 1.3 kg/m3
[1]; 293.15 K
  surface tension liquid-gas: 20.2 ± 1.5 mN/m
  mass density: 785.088 ± 1.3 kg/m3
[1]; 298.15 K
  surface tension liquid-gas: 19.8 ± 1.5 mN/m
  mass density: 780.887 ± 1.3 kg/m3
[1]; 303.15 K
  surface tension liquid-gas: 19.5 ± 1.5 mN/m
  mass density: 776.617 ± 1.3 kg/m3
[1]; 308.15 K
  surface tension liquid-gas: 19.1 ± 1.5 mN/m
  mass density: 772.266 ± 1.3 kg/m3
[1]; 313.15 K
  surface tension liquid-gas: 18.7 ± 1.5 mN/m
  mass density: 767.829 ± 1.3 kg/m3
[1]; 318.15 K
  surface tension liquid-gas: 18.4 ± 1.5 mN/m
  mass density: 763.293 ± 1.3 kg/m3

## CC(C)O [propan-2-ol] + CCn1cc[n+](CCOC)c1.O=S(=O)([O-])C(F)(F)F
[2]; 288.15 K
  surface tension liquid-gas: 20.6 ± 1.5 mN/m
  mass density: 789.224 ± 1.3 kg/m3
[2]; 293.15 K
  surface tension liquid-gas: 20.2 ± 1.5 mN/m
  mass density: 785.088 ± 1.3 kg/m3
[2]; 298.15 K
  surface tension liquid-gas: 19.8 ± 1.5 mN/m
  mass density: 780.887 ± 1.3 kg/m3
[2]; 303.15 K
  surface tension liquid-gas: 19.5 ± 1.5 mN/m
  mass density: 776.617 ± 1.3 kg/m3
[2]; 308.15 K
  surface tension liquid-gas: 19.1 ± 1.5 mN/m
  mass density: 772.266 ± 1.3 kg/m3
[2]; 313.15 K
  surface tension liquid-gas: 18.7 ± 1.5 mN/m
  mass density: 767.829 ± 1.3 kg/m3
[2]; 318.15 K
  surface tension liquid-gas: 18.4 ± 1.5 mN/m
  mass density: 763.293 ± 1.3 kg/m3
